Results: ChEMBL document CHEMBL4364299, “Discovery of a Potent Kelch-Like ECH-Associated Protein 1-Nuclear Factor Erythroid 2-Related Factor 2 (Keap1-Nrf2) Protein-Protein Interaction Inhibitor with Natural Proline Structure as a Cytoprotective Agent against Acetaminophen-Induced Hepatotoxicity” (J Med Chem, 2019)
The source made the active and inactive calls. The rule behind the calls is not given here.

What was measured:
Mus musculus [1] = assay: Protection against APAP-induced hepatotoxicity in C57BL/6 mouse assessed as destruction of liver structure at 10 to 40 mg/kg, ip treated 2 hrs prior to 22 hrs starvation followed by APAP challenge and measured after 6 hrs by H and E staining-based light microscopic analysis; format: functional, organism-based
L02 [2] = assay: Upregulation of GCLM expression in human L02 cells harboring Nrf2 siRNA at 10 uM measured after 10 hrs by Western blot analysis; format: functional, cell-based
[3] = target: T1, Nuclear factor erythroid 2-related factor 2 (Homo sapiens) (UniProt Q16236); assay: Activation of Nrf2 in human L02 cells assessed as increase in HO-1 expression at 10 uM measured after 4 to 72 hrs hrs by Western blot analysis; format: cell-based
T1 sequence (whole entry): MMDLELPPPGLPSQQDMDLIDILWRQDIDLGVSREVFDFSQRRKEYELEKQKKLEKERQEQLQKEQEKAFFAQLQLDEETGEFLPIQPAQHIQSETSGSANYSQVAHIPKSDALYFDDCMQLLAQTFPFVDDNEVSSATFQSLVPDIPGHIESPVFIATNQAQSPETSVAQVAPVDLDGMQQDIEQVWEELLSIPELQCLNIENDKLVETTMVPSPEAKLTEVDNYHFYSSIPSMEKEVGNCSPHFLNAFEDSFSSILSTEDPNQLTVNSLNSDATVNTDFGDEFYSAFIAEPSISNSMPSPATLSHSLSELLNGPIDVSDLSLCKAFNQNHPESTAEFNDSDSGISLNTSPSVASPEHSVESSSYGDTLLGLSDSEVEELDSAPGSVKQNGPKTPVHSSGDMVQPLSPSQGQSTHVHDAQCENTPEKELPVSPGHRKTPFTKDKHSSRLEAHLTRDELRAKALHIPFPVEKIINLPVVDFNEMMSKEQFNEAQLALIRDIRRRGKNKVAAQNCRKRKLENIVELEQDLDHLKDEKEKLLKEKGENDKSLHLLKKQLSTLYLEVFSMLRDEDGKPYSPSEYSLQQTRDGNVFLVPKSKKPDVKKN

Mus musculus [4] = assay: Protection against APAP-induced hepatotoxicity in C57BL/6 mouse assessed as decrease in ALT level at 10 mg/kg, ip treated 2 hrs prior to 22 hrs starvation followed by APAP challenge and measured after 6 hrs; format: functional, organism-based
[5] = target: T1, Nuclear factor erythroid 2-related factor 2 (Homo sapiens); assay: Activation of Nrf2 in human L02 cells assessed as increase in NEFL2L expression measured after 12 hrs by Western blot analysis; format: cell-based
L02 [6] = assay: Cytotoxicity against human L02 cells assessed as reduction in cell viability up to 100 uM measured after 48 hrs by MTT assay; format: cell-based; details: l02, 48 h
[7] = target: T1, Nuclear factor erythroid 2-related factor 2 (Homo sapiens); assay: Activation of Nrf2 in human L02 cells assessed as increase in NQO-1 expression measured after 12 hrs by Western blot analysis; format: cell-based
Mus musculus [8] = assay: Protection against APAP-induced hepatotoxicity in C57BL/6 mouse assessed as decrease in reactive oxygen species level in liver at 10 to 40 mg/kg, ip treated 2 hrs prior to 22 hrs starvation followed by APAP challenge and measured after 6 hrs; format: functional, organism-based
L02 [9] = details: Homo sapiens, 5 to 10 uM
Description: Cytoprotective activity against APAP-induced hepatotoxicity in human L02 cells assessed as inhibition of IL1beta production at 5 to 10 uM preincubated for 12 hrs followed by APAP stimulation and measured after 24 hrs by ELISA

[10] = target: T1, Nuclear factor erythroid 2-related factor 2 (Homo sapiens); assay: Activation of Nrf2 in human L02 cells assessed as increase in NQO-1 mRNA expression at 10 uM measured after 8 to 24 hrs by trizol reagent based qRT-PCR analysis; format: cell-based
Mus musculus [11] = assay: Protection against APAP-induced hepatotoxicity in C57BL/6 mouse assessed as increase in GSH/GSSG ratio in liver at 10 to 40 mg/kg, ip treated 2 hrs prior to 22 hrs starvation followed by APAP challenge and measured after 6 hrs; format: functional, organism-based
[12] = target: T1, Nuclear factor erythroid 2-related factor 2 (Homo sapiens); assay: Activation of Nrf2 in human L02 cells assessed as increase in HO-1 mRNA expression measured after 12 hrs by trizol reagent based qRT-PCR analysis; format: cell-based
[13] = target: T1, Nuclear factor erythroid 2-related factor 2 (Homo sapiens); assay: Activation of Nrf2 in human L02 cells assessed as increase in NEFL2L mRNA expression measured after 12 hrs by trizol reagent based qRT-PCR analysis; format: cell-based
[14] = target: T1, Nuclear factor erythroid 2-related factor 2 (Homo sapiens); assay: Activation of Nrf2 in human L02 cells assessed as increase in NEFL2L expression at 10 uM measured after 4 to 72 hrs hrs by Western blot analysis; format: cell-based
[15] = target: T1, Nuclear factor erythroid 2-related factor 2 (Homo sapiens); assay: Activation of Nrf2 in human L02 cells assessed as increase in NEFL2L mRNA expression at 10 uM measured after 8 to 24 hrs by trizol reagent based qRT-PCR analysis; format: cell-based
[16] = target: T1, Nuclear factor erythroid 2-related factor 2 (Homo sapiens); assay: Activation of Nrf2 in human L02 cells assessed as increase in HO-1 mRNA expression at 10 uM measured after 8 to 24 hrs by trizol reagent based qRT-PCR analysis; format: cell-based
Mus musculus [17] = assay: Protection against APAP-induced hepatotoxicity in C57BL/6 mouse assessed as decrease in GCLM expression in liver at 10 to 40 mg/kg, ip treated 2 hrs prior to 22 hrs starvation followed by APAP challenge and measured after 6 hrs by Dako/Mayer's hematoxylin staining-based immunohistochemical analysis; format: functional, organism-based
Mus musculus [18] = assay: Protection against APAP-induced hepatotoxicity in C57BL/6 mouse assessed as decrease in MPO activity in liver at 10 to 40 mg/kg, ip treated 2 hrs prior to 22 hrs starvation followed by APAP challenge and measured after 6 hrs; format: functional, organism-based
Mus musculus [19] = assay: Protection against APAP-induced hepatotoxicity in C57BL/6 mouse assessed as reduction in liver apoptosis at 10 to 40 mg/kg, ip treated 2 hrs prior to 22 hrs starvation followed by APAP challenge and measured after 6 hrs by TUNEL assay; format: functional, organism-based
[20] = target: T1, Nuclear factor erythroid 2-related factor 2 (Homo sapiens); assay: Activation of Nrf2 in human L02 cells assessed as increase in NQO-1 mRNA expression measured after 12 hrs by trizol reagent based qRT-PCR analysis; format: cell-based
[21] = target: T1, Nuclear factor erythroid 2-related factor 2 (Homo sapiens); assay: Activation of Nrf2 in human L02 cells assessed as increase in HO-1 expression measured after 12 hrs by Western blot analysis; format: cell-based
Mus musculus [22] = assay: Protection against APAP-induced hepatotoxicity in C57BL/6 mouse assessed as decrease in NQO1 expression in liver at 10 to 40 mg/kg, ip treated 2 hrs prior to 22 hrs starvation followed by APAP challenge and measured after 6 hrs by Dako/Mayer's hematoxylin staining-based immunohistochemical analysis; format: functional, organism-based
Mus musculus [23] = assay: Protection against APAP-induced hepatotoxicity in C57BL/6 mouse assessed as decrease in ALP level at 10 mg/kg, ip treated 2 hrs prior to 22 hrs starvation followed by APAP challenge and measured after 6 hrs; format: functional, organism-based
[24] = target: T1, Nuclear factor erythroid 2-related factor 2 (Homo sapiens); assay: Activation of Nrf2 in human L02 cells harboring control siRNA assessed as increase in NQO-1 mRNA expression at 10 uM measured after 10 hrs by trizol reagent based qRT-PCR analysis; format: cell-based
L02 [25] = assay: Upregulation of NQO-1 mRNA expression in human L02 cells harboring Nrf2 siRNA at 10 uM measured after 10 hrs by trizol reagent based qRT-PCR analysis; format: functional, cell-based
[26] = target: T1, Nuclear factor erythroid 2-related factor 2 (Homo sapiens); assay: Activation of Nrf2 in human L02 cells assessed as increase in NQO-1 expression at 10 uM measured after 4 to 72 hrs hrs by Western blot analysis; format: cell-based

COc1ccc(S(=O)(=O)N(CC(=O)O)c2ccc(N3CCC[C@H]3C(=O)O)c3ccccc23)cc1
Activity (Mus musculus [1]): Active | Activity (L02 [2]): inactive | Activity [3]: Active | Activity (Mus musculus [4]): Active | Activity [5]: Dose-dependent effect | Activity (L02 [6]): Non-Toxic | Activity [7]: Dose-dependent effect | Activity (Mus musculus [8]): Active | inhibition (L02 [9]): Active | Activity [10]: Active | Activity (Mus musculus [11]): Active | Activity [12]: Dose-dependent effect | Activity [13]: Dose-dependent effect | Activity [14]: Active | Activity [15]: Active | Activity [16]: Active | Activity (Mus musculus [17]): Active | Activity (Mus musculus [18]): Active | Activity (Mus musculus [19]): Active | Activity [20]: Dose-dependent effect | Activity [21]: Dose-dependent effect | Activity (Mus musculus [22]): Active | Activity (Mus musculus [23]): Active | Activity [24]: Active | Activity (L02 [25]): inactive | Activity [26]: Active
